Counter-ions that a name gives are not always drawn.
Assay: Dynamic Vapor Sorption (DVS), hygroscopicity of solids
Assay type: physicochemical
Conditions: from about 10% to about 90% RH at about 25° C.
Procedure: Dynamic Vapor Sorption (DVS):
DVS data, which was used to determine the hygroscopicity of solids, were collected on a TA Instruments Q5000SA system. The temperature-controlled chamber was set at 25° C. and dry nitrogen was introduced at a flow rate of 10 mL/min. Approximately 1 to 5 mg sample was placed in a semispherical metal-coated quartz crucible or a disposable aluminum pan. A stepwise isotherm experiment at 25° C. was conducted by controlling the relative humidity (RH) in the chamber from 10% to 90%, then down to 10%, at 10% increments to accomplish a full sorption/desorption cycle.

| dynamic vapor sorption isotherm water uptake | SMILES |
| --- | --- |
| about 3% | CC#CC(=O)N1CC[C@@H](n2c(=O)n(-c3ccc(Oc4ccccc4)cc3)c3c(N)ncnc32)C1 [Compound (I) hemiedisylate, 6-amino-9-[(3R)-1-(2-butynoyl)-3-pyrrolidinyl]-7-(4-phenoxyphenyl)-7,9-dihydro-8H-purin-8-one] |
| about 0.5% | CC#CC(=O)N1CC[C@@H](n2c(=O)n(-c3ccc(Oc4ccccc4)cc3)c3c(N)ncnc32)C1 [Compound (I) oxalate, 6-amino-9-[(3R)-1-(2-butynoyl)-3-pyrrolidinyl]-7-(4-phenoxyphenyl)-7,9-dihydro-8H-purin-8-one] |
| about 0.1% | CC#CC(=O)N1CC[C@@H](n2c(=O)n(-c3ccc(Oc4ccccc4)cc3)c3c(N)ncnc32)C1 [Compound (I) fumarate, 6-amino-9-[(3R)-1-(2-butynoyl)-3-pyrrolidinyl]-7-(4-phenoxyphenyl)-7,9-dihydro-8H-purin-8-one] |
| about 6.5% | CC#CC(=O)N1CC[C@@H](n2c(=O)n(-c3ccc(Oc4ccccc4)cc3)c3c(N)ncnc32)C1 [Compound (I) heminapadisylate, 6-amino-9-[(3R)-1-(2-butynoyl)-3-pyrrolidinyl]-7-(4-phenoxyphenyl)-7,9-dihydro-8H-purin-8-one] |

The next lines start with the molecule.

| SMILES | dynamic vapor sorption isotherm water uptake |
| --- | --- |
| CC#CC(=O)N1CC[C@@H](n2c(=O)n(-c3ccc(Oc4ccccc4)cc3)c3c(N)ncnc32)C1 [Compound (I) succinate, 6-amino-9-[(3R)-1-(2-butynoyl)-3-pyrrolidinyl]-7-(4-phenoxyphenyl)-7,9-dihydro-8H-purin-8-one] | about 0.2% |
| CC#CC(=O)N1CC[C@@H](n2c(=O)n(-c3ccc(Oc4ccccc4)cc3)c3c(N)ncnc32)C1 [Compound (I) hemisulfate, 6-amino-9-[(3R)-1-(2-butynoyl)-3-pyrrolidinyl]-7-(4-phenoxyphenyl)-7,9-dihydro-8H-purin-8-one] | about 1.2% |
| CC#CC(=O)N1CC[C@@H](n2c(=O)n(-c3ccc(Oc4ccccc4)cc3)c3c(N)ncnc32)C1 [Compound (I) edisylate, 6-amino-9-[(3R)-1-(2-butynoyl)-3-pyrrolidinyl]-7-(4-phenoxyphenyl)-7,9-dihydro-8H-purin-8-one] | about 22% |

— patent US10370381B2, “Inhibitors of bruton'S tyrosine kinase” (GILEAD SCIENCES, INC., priority 2017, dated 2019)
